Paper PMC3968014, “Design and Synthesis of a Library of Lead-Like 2,4-Bisheterocyclic Substituted Thiophenes as Selective Dyrk/Clk Inhibitors” (PLoS ONE, 2014)
Where “and” joins values, the source holds several entries; their conditions need not be identical. Equal values may be shown once.

Experiments:
PRKACA (PKA) = target: T1, PRKACA (PKA) (Homo sapiens, UniProt P17612); test: Selectivity panel PRKACA; type: biochemical; details: 5 µM inhibitor
T1 construct: purchased Life Technologies (Invitrogen SelectScreen); Dyrk1A, Dyrk2 and CK2α in-house or gifts

AKT1 (PKB alpha) = target: T2, AKT1 (PKB alpha) (Homo sapiens, UniProt P31749); test: Selectivity panel AKT1; type: biochemical; details: 5 µM inhibitor
T2 construct: purchased Life Technologies (Invitrogen SelectScreen); Dyrk1A, Dyrk2 and CK2α in-house or gifts

U2OS osteosarcoma cells = test: Caspase-3 Assay (Caspase-Glo 3/7); type: cell-based
Protocol: U2OS osteosarcoma cells were seeded in a 96 well flat bottom plate (15*10^3 cells/well). […] The induction of caspase-3/7 activity was measured using the Promega Caspase-Glo 3/7 assay system (Promega, LOT 0000054568). The resulting luciferase reaction signals that are proportional to the caspase induction were measured in a POLARstar plate reader (BMG Labtech, Offenburg, Germany). […] Values obtained for different compound concentrations were compared using the two-sided Student's t test; levels of significance thus obtained are indicated by asterisks.

CDK5 = target: T3, CDK5 (Homo sapiens, UniProt Q00535); test: Selectivity panel CDK5; type: biochemical; details: 5 µM inhibitor
T3 construct: purchased Life Technologies (Invitrogen SelectScreen); Dyrk1A, Dyrk2 and CK2α in-house or gifts
T3 sequence (Q00535 whole entry): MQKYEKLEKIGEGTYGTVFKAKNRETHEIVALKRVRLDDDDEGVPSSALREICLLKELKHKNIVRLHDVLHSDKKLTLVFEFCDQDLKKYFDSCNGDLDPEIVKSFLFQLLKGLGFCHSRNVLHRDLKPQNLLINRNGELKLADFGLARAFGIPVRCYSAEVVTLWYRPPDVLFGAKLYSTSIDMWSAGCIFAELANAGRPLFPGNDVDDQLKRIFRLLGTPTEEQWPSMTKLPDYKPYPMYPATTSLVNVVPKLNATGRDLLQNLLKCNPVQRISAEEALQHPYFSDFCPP
T3 sequence (Q15078 whole entry partner): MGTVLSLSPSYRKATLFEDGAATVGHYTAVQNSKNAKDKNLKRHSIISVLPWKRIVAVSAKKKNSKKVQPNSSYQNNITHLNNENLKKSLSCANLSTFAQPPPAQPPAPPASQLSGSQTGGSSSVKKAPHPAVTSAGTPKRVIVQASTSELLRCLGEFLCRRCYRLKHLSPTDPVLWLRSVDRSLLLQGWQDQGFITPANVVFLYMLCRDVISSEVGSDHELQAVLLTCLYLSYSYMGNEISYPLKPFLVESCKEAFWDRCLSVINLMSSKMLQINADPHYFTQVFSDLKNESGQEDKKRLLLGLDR

WEE1 = target: T4, WEE1 (Homo sapiens, UniProt P30291); test: Selectivity panel WEE1; type: biochemical; details: 5 µM inhibitor
T4 construct: purchased Life Technologies (Invitrogen SelectScreen); Dyrk1A, Dyrk2 and CK2α in-house or gifts

PRKD1 (PKC mu, PKD1) = target: T5, PRKD1 (PKC mu, PKD1) (Homo sapiens, UniProt Q15139); test: Selectivity panel PRKD1; type: biochemical; details: 5 µM inhibitor
T5 construct: purchased Life Technologies (Invitrogen SelectScreen); Dyrk1A, Dyrk2 and CK2α in-house or gifts

FYN = target: T6, FYN (Homo sapiens, UniProt P06241); test: Selectivity panel FYN; type: biochemical; details: 5 µM inhibitor
T6 construct: purchased Life Technologies (Invitrogen SelectScreen); Dyrk1A, Dyrk2 and CK2α in-house or gifts

ABL1 = target: T7, ABL1 (Homo sapiens, UniProt P00519); test: Selectivity panel ABL1; type: biochemical; details: 5 µM inhibitor
T7 construct: purchased Life Technologies (Invitrogen SelectScreen); Dyrk1A, Dyrk2 and CK2α in-house or gifts

AMPK A1/B1/G1 = target: T8, AMPK A1/B1/G1 (Homo sapiens, UniProt Q13131); test: Selectivity panel AMPK; type: biochemical; details: 5 µM inhibitor
T8 construct: purchased Life Technologies (Invitrogen SelectScreen); Dyrk1A, Dyrk2 and CK2α in-house or gifts

PASK = target: T9, PASK (Homo sapiens, UniProt Q96RG2); test: Selectivity panel PASK (CAMK); type: biochemical; details: 5 µM inhibitor; listed under CAMK
T9 construct: purchased Life Technologies (Invitrogen SelectScreen); Dyrk1A, Dyrk2 and CK2α in-house or gifts

RAF1 (cRAF) Y340D Y341D = target: T10, RAF1 (cRAF) Y340D Y341D (Homo sapiens, UniProt P04049, Y340D/Y341D); test: Selectivity panel RAF1; type: biochemical; details: 5 µM inhibitor
T10 construct: purchased Life Technologies (Invitrogen SelectScreen); Dyrk1A, Dyrk2 and CK2α in-house or gifts

RPS6KB1 (p70S6K) = target: T11, RPS6KB1 (p70S6K) (Homo sapiens, UniProt P23443); test: Selectivity panel RPS6KB1; type: biochemical; details: 5 µM inhibitor
T11 construct: purchased Life Technologies (Invitrogen SelectScreen); Dyrk1A, Dyrk2 and CK2α in-house or gifts

PRKCZ (PKC zeta) = target: T12, PRKCZ (PKC zeta) (Homo sapiens, UniProt Q05513); test: Selectivity panel PRKCZ; type: biochemical; details: 5 µM inhibitor
T12 construct: purchased Life Technologies (Invitrogen SelectScreen); Dyrk1A, Dyrk2 and CK2α in-house or gifts

MARK1 (MARK) = target: T13, MARK1 (MARK) (Homo sapiens, UniProt Q9P0L2); test: Selectivity panel MARK1; type: biochemical; details: 5 µM inhibitor
T13 construct: purchased Life Technologies (Invitrogen SelectScreen); Dyrk1A, Dyrk2 and CK2α in-house or gifts

IRAK4 = target: T14, IRAK4 (Homo sapiens, UniProt Q9NWZ3); test: Selectivity panel IRAK4; type: biochemical; details: 5 µM inhibitor
T14 construct: purchased Life Technologies (Invitrogen SelectScreen); Dyrk1A, Dyrk2 and CK2α in-house or gifts

PHKG2 = target: T15, PHKG2 (Homo sapiens, UniProt P15735); test: Selectivity panel PHKG2; type: biochemical; details: 5 µM inhibitor
T15 construct: purchased Life Technologies (Invitrogen SelectScreen); Dyrk1A, Dyrk2 and CK2α in-house or gifts
T15 sequence (P15735 whole entry): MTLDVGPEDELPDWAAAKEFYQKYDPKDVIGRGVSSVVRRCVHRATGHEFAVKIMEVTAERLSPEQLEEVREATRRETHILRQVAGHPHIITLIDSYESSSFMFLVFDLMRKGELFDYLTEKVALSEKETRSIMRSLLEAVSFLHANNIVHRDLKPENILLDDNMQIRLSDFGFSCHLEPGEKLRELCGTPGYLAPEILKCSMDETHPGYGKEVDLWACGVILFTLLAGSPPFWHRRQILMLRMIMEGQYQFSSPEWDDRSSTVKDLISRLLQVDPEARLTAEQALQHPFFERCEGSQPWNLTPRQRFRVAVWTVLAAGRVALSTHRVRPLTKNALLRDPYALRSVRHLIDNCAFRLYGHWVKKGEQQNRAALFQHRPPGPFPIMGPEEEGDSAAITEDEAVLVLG

DYRK3 = target: T16, DYRK3 (Homo sapiens, UniProt O43781); test: Selectivity panel DYRK3; type: biochemical; details: 5 µM inhibitor
T16 construct: purchased Life Technologies (Invitrogen SelectScreen); Dyrk1A, Dyrk2 and CK2α in-house or gifts

MST1 (STK4) = target: T17, MST1 (STK4) (Homo sapiens, UniProt Q13043); test: Selectivity panel MST1; type: biochemical; details: 5 µM inhibitor
T17 construct: purchased Life Technologies (Invitrogen SelectScreen); Dyrk1A, Dyrk2 and CK2α in-house or gifts
T17 sequence (Q13043 1-487): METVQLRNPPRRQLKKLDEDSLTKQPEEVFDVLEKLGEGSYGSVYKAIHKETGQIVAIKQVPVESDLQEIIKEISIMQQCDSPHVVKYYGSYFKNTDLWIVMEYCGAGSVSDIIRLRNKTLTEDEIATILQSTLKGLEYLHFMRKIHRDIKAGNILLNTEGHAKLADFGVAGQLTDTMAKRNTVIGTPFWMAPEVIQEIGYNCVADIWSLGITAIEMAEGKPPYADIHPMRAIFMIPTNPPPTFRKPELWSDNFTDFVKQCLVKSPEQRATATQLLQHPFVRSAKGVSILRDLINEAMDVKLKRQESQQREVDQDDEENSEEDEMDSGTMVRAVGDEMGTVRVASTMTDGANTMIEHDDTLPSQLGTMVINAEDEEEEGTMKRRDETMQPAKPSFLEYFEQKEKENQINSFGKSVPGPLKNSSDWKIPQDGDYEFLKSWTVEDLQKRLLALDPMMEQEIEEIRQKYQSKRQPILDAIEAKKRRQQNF

RPS6KA1 (RSK1) = target: T18, RPS6KA1 (RSK1) (Homo sapiens, UniProt Q15418); test: Selectivity panel RPS6KA1; type: biochemical; details: 5 µM inhibitor
T18 construct: purchased Life Technologies (Invitrogen SelectScreen); Dyrk1A, Dyrk2 and CK2α in-house or gifts

CDK2/cyclin A = target: T19, CDK2/cyclin A (Homo sapiens, UniProt P24941); test: Selectivity panel CDK2/cyclin A; type: biochemical; details: 5 µM inhibitor
T19 construct: purchased Life Technologies (Invitrogen SelectScreen); Dyrk1A, Dyrk2 and CK2α in-house or gifts

MAP3K5 (ASK1) = target: T20, MAP3K5 (ASK1) (Homo sapiens, UniProt Q99683); test: Selectivity panel MAP3K5; type: biochemical; details: 5 µM inhibitor
T20 construct: purchased Life Technologies (Invitrogen SelectScreen); Dyrk1A, Dyrk2 and CK2α in-house or gifts

PIK3CA/PIK3R1 = target: T21, PIK3CA/PIK3R1 (Homo sapiens, UniProt P42336); test: Selectivity panel PIK3CA/PIK3R1; type: biochemical; details: 5 µM inhibitor
T21 construct: purchased Life Technologies (Invitrogen SelectScreen); Dyrk1A, Dyrk2 and CK2α in-house or gifts

HIPK1 = target: T22, HIPK1 (Homo sapiens, UniProt Q86Z02); test: Selectivity panel HIPK1; type: biochemical; details: 5 µM inhibitor
T22 construct: purchased Life Technologies (Invitrogen SelectScreen); Dyrk1A, Dyrk2 and CK2α in-house or gifts
T22 sequence (Q86Z02 whole entry): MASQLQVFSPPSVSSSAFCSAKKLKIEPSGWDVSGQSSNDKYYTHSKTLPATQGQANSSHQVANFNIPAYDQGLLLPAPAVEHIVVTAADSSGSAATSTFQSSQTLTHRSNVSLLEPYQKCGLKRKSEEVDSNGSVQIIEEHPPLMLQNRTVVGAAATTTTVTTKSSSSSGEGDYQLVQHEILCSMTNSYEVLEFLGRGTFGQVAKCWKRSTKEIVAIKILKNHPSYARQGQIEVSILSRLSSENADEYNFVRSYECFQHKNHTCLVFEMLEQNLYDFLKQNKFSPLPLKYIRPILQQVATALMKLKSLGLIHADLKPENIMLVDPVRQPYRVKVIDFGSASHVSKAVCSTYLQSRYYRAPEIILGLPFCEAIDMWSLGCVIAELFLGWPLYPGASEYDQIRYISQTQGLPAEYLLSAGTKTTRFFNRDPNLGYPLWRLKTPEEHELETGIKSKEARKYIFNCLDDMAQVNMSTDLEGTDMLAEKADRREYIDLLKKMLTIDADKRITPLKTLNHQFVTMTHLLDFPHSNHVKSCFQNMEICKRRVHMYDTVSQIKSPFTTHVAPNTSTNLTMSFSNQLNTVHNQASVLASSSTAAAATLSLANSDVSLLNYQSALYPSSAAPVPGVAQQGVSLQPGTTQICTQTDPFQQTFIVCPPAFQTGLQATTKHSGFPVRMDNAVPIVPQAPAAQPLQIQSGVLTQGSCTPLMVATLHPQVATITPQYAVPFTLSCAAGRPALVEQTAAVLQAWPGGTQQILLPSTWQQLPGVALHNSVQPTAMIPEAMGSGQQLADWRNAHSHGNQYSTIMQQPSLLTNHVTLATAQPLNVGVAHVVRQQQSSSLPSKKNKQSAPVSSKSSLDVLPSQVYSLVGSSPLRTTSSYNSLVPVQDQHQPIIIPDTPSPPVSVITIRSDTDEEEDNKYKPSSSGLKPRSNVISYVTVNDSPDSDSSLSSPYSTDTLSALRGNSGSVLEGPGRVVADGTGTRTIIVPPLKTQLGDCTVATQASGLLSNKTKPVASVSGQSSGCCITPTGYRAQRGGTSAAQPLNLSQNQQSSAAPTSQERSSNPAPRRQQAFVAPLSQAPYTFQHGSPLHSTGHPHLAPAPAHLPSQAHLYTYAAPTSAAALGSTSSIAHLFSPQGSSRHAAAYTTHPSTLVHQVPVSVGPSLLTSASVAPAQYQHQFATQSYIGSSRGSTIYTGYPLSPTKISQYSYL

SRC = target: T23, SRC (Homo sapiens, UniProt P12931); test: Selectivity panel SRC; type: biochemical; details: 5 µM inhibitor
T23 construct: purchased Life Technologies (Invitrogen SelectScreen); Dyrk1A, Dyrk2 and CK2α in-house or gifts

MLK1 = target: T24, MLK1 (Homo sapiens, UniProt P80192); test: Selectivity panel MLK1; type: biochemical; details: 5 µM inhibitor
T24 construct: purchased Life Technologies (Invitrogen SelectScreen); Dyrk1A, Dyrk2 and CK2α in-house or gifts
T24 sequence (P80192 whole entry): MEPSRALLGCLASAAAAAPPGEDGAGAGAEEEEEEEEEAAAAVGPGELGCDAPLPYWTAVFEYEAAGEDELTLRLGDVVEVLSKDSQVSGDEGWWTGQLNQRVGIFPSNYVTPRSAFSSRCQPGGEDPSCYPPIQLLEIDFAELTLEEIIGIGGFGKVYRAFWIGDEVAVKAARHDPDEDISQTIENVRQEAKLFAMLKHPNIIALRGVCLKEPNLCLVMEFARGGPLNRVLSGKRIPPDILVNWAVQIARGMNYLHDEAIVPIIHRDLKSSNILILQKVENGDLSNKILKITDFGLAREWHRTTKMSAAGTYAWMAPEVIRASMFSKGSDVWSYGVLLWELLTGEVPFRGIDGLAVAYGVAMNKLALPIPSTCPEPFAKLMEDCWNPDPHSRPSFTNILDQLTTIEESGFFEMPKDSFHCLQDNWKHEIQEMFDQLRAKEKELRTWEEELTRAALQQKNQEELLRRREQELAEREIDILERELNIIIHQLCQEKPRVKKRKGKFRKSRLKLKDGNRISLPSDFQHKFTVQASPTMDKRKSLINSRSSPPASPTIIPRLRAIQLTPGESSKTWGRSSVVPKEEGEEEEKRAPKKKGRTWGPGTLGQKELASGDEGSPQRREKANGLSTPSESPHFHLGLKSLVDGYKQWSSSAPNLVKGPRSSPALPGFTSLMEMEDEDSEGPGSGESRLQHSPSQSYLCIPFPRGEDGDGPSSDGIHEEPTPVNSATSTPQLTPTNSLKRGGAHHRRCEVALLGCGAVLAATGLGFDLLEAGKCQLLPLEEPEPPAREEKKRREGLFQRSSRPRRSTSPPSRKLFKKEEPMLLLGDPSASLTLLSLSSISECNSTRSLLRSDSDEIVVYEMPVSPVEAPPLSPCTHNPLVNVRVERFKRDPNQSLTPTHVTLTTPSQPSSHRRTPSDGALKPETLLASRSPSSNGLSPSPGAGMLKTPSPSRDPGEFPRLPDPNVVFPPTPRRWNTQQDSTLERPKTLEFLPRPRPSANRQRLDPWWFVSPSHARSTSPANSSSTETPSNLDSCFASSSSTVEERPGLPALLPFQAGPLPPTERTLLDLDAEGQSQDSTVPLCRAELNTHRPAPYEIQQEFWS

GSK3β = target: T25, GSK3β (Homo sapiens, UniProt P49841); test: Selectivity panel GSK3β; type: biochemical; details: 5 µM inhibitor
T25 construct: purchased Life Technologies (Invitrogen SelectScreen); Dyrk1A, Dyrk2 and CK2α in-house or gifts
T25 sequence (P49841 whole entry): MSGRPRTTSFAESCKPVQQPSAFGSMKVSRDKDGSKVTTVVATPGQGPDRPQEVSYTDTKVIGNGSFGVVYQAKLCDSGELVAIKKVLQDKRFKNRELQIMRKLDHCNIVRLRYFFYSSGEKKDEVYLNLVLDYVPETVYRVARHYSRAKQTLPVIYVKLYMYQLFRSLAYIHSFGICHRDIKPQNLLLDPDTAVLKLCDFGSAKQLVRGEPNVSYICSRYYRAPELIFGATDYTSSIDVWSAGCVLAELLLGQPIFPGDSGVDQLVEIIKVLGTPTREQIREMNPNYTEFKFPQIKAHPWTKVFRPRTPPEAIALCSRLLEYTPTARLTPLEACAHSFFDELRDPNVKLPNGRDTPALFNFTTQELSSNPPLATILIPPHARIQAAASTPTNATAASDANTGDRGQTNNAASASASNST

PKCβ = target: T26, PKCβ (Homo sapiens, UniProt P05771); test: Selectivity panel PKCβ; type: biochemical; details: 5 µM inhibitor
T26 construct: purchased Life Technologies (Invitrogen SelectScreen); Dyrk1A, Dyrk2 and CK2α in-house or gifts
T26 sequence (P05771 whole entry): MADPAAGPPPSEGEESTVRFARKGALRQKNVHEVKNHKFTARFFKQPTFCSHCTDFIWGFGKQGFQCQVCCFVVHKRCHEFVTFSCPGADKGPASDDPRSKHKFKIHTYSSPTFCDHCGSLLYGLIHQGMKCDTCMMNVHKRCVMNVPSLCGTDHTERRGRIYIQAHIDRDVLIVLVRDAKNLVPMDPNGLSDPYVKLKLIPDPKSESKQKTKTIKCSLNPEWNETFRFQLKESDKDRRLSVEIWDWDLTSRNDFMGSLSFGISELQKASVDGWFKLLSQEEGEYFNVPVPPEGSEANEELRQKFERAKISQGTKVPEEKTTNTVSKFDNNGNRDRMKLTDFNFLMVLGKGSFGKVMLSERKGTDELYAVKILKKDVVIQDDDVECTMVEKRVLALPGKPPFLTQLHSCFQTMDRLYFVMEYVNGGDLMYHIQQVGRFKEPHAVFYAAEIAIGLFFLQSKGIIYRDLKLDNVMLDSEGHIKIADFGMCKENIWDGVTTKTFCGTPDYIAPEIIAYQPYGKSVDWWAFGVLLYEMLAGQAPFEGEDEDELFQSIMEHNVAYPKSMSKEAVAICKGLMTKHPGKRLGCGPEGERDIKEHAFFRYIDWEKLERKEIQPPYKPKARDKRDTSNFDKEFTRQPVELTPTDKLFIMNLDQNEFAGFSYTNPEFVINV

MINK1 = target: T27, MINK1 (Homo sapiens, UniProt Q8N4C8); test: Selectivity panel MINK1; type: biochemical; details: 5 µM inhibitor
T27 construct: purchased Life Technologies (Invitrogen SelectScreen); Dyrk1A, Dyrk2 and CK2α in-house or gifts

RET = target: T28, RET (Homo sapiens, UniProt P07949); test: Selectivity panel RET; type: biochemical; details: 5 µM inhibitor
T28 construct: purchased Life Technologies (Invitrogen SelectScreen); Dyrk1A, Dyrk2 and CK2α in-house or gifts

LYN A = target: T29, LYN A (Homo sapiens, UniProt P07948); test: Selectivity panel LYN A; type: biochemical; details: 5 µM inhibitor
T29 construct: purchased Life Technologies (Invitrogen SelectScreen); Dyrk1A, Dyrk2 and CK2α in-house or gifts

RIPK2 = target: T30, RIPK2 (Homo sapiens, UniProt O43353); test: Selectivity panel RIPK2; type: biochemical; details: 5 µM inhibitor
T30 construct: purchased Life Technologies (Invitrogen SelectScreen); Dyrk1A, Dyrk2 and CK2α in-house or gifts

Dyrk1B = target: T31, Dyrk1B (Homo sapiens, UniProt Q9Y463); test: Dyrk1B kinase assay (32P-ATP, Woodtide); type: biochemical
T31 construct: purchased Life Technologies PV4649 (LOT # 877059G)
T31 sequence (Q9Y463 whole entry): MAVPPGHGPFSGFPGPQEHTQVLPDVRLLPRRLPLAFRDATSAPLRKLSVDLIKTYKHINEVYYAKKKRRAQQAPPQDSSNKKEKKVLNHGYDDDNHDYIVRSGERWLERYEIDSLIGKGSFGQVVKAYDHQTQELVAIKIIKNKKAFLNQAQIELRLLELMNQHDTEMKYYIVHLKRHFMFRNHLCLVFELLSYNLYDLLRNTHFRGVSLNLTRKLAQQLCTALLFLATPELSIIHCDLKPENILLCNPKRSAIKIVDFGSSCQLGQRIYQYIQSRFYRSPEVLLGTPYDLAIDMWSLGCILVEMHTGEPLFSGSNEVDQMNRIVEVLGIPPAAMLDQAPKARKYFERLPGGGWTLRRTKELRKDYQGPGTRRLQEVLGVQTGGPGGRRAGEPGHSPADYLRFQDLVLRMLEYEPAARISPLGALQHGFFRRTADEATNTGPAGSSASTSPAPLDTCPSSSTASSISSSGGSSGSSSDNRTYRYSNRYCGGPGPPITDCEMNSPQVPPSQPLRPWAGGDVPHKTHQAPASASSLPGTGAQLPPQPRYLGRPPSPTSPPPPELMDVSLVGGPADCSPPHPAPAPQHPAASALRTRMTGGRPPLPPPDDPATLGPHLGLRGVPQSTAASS

SMILES: c1cncc(-c2cc(-c3cncs3)cs2)c1 [Compound 29, 3-[4-(1,3-thiazol-5-yl)thiophen-2-yl]pyridine]
- inhibition at 5 µM (PRKACA (PKA)): 1%
- inhibition at 5 µM (AKT1 (PKB alpha)): 9%
- concentration at which induction of caspase-3/7 was already observed (U2OS osteosarcoma cells; U2OS cells, not statistically significant at this concentration): 0.5 µM
- caspase-3/7 activity (U2OS osteosarcoma cells; starved U2OS cells, 48 hours, vs DMSO control): clear increase
- inhibition at 5 µM (CDK5): 39%
- inhibition at 5 µM (WEE1): 17%
- inhibition at 5 µM (PRKD1 (PKC mu, PKD1)): -1%
- inhibition at 5 µM (FYN): -2%
- inhibition at 5 µM (ABL1): 2%
- inhibition at 5 µM (AMPK A1/B1/G1): -9%
- inhibition at 5 µM (PASK): 23%
- inhibition at 5 µM (RAF1 (cRAF) Y340D Y341D): 36%
- inhibition at 5 µM (RPS6KB1 (p70S6K)): -2%
- inhibition at 5 µM (PRKCZ (PKC zeta)): -23%
- inhibition at 5 µM (MARK1 (MARK)): 0%
- inhibition at 5 µM (IRAK4): -7%
- inhibition at 5 µM (PHKG2): -12%
- inhibition at 5 µM (DYRK3): 66%
- inhibition at 5 µM (MST1 (STK4)): 0%
- inhibition at 5 µM (RPS6KA1 (RSK1)): 2%
- inhibition at 5 µM (CDK2/cyclin A): 22%
- inhibition at 5 µM (MAP3K5 (ASK1)): 4%
- inhibition at 5 µM (PIK3CA/PIK3R1): 21%
- inhibition at 5 µM (HIPK1): 4%
- inhibition at 5 µM (SRC): -8%
- inhibition at 5 µM (MLK1): 15%
- inhibition at 5 µM (GSK3β): 0%
- inhibition at 5 µM (PKCβ): -7%
- inhibition at 5 µM (MINK1): 36%
- inhibition at 5 µM (RET): -1%
- inhibition at 5 µM (LYN A): 16%
- inhibition at 5 µM (RIPK2): 53%

SMILES: Cn1cc(-c2csc(-c3cccnc3)c2)cn1 [Compound 30, 3-[4-(1-methyl-1H-pyrazol-4-yl)thiophen-2-yl]pyridine]
- IC50 (Dyrk1B; 100 µM ATP): 400 nM and 410 nM
- inhibition at 5 µM (Dyrk1B; at 5 µM, read-out: percentage of inhibition Dyrk1B): 100%
- Kd (Dyrk1B; calculated with Cheng-Prussoff equation, KM ATP 59 µM): 148 nM
- inhibition at 5 µM (CDK5): 33%
- inhibition at 5 µM (MST1 (STK4)): -10%
- inhibition at 5 µM (HIPK1): 8%
- inhibition at 5 µM (MLK1): 16%
- inhibition at 5 µM (GSK3β): 17%
- inhibition at 5 µM (PKCβ): -8%
